Test results from EP4755885A1 (Shanghai Hansoh Biomedical Co., Ltd., priority 2023, dated 2025).

Tests used:
human GLP-1 receptor [1] = target: T1, human GLP-1 receptor (Homo sapiens, UniProt P43220); test: cAMP production in cell line stably transformed with human GLP1 receptor, 30 min co-incubation (HTRF); assay type: cell-based; details: CHO-K1/GLP-1R/CRE-luc cells, stimulation for 0.5 h, read-out: EC50
T1 construct: expressed in transfected cells
Protocol: (§1) The purpose of this assay example is to test the ability of the compound to activate the human GLP-1 receptor on cell surface. The EC50 for stimulated cAMP production after activation characterizes the ability of the compound to activate the human GLP-1 receptor.
In this experiment, the compound and cells were co-incubated for 30 min.
(§2) Frozen cell line CHO-K1/GLP-1R/CRE-luc stably transformed with human GLP1 receptor was removed from a liquid nitrogen tank, and was placed in a 37°C water bath for rapid thawing. The cells were resuspended in DMEM/F12 medium, and after centrifugation, were washed once. The cells were resuspended in an experimental buffer, i.e., DMEM/F12 medium containing 0.1% casein. After centrifugation, cell density was adjusted using the experimental buffer. The cells were plated onto a 384-well plate at a density of 1500 cells/5 µL/well. Then, each well was added with 2.5 µL of IBMX working solution prepared with the buffer, the final concentration of IBMX being 0.5 mM, and 2.5 µL of a serially diluted compound sample (starting from […], 3-fold dilution, 12 concentrations). The plate was centrifuged at 1000 rpm for 1 min, and was stood for incubation at 37°C for 0.5 h. Determination was performed using the Cisbio cAMP - Gs Dynamic kit. cAMP-d2 and anti-cAMP-Eu3+-Cryptate were diluted 18-fold and 20-fold respectively with cAMP Lysis & Detection Buffer, and were respectively mixed homogeneously. Each well was added with 5 µL of diluted cAMP-d2 solution, and the plate was centrifuged at 1000 rpm for 1 min, and shaken for 30 seconds for homogeneous mixing. Then, each well was added with 5 µL of diluted anti-cAMP-Eu3+-Cryptate solution, and the plate was centrifuged at 1000 rpm for 1 min and was incubated in the dark at room temperature for 1 h. HTRF signals were read using the Biotek Synergy H1 microplate reader, the excitation wavelength being 320 nm and the emission wavelengths being 620 nm and 665 nm.
(§3) The signal-to-signal ratio was calculated (665 nm/620 nm * 10,000). Nonlinear fitting between the signal-to-signal ratio and the sample concentration was performed in GraphPad Prism 10 using a four-parameter equation to obtain the EC50 value.

[2] = Pharmacokinetic evaluation in rats, oral administration; parameters: species or system SD rats; details: rat, in vivo, p.o. 5 mg/kg, plasma; for MRT inf: read-out: MRT 0-∞
Protocol: SD rats were used as test animals to study the pharmacokinetic behavior of the following example compounds, administered orally at a dose of 5 mg/kg, in the plasma of the rats. SD rats, 3 per group, male. […] An example compound was weighed and added to a 4 mL glass bottle, and the solution was added. […] Sonication was performed for 10 min to obtain a colorless clear solution having a concentration of 0.5 mg/mL. […] The blood samples were placed in EDTA-K2 tubes and centrifuged at 6000 rpm at 4°C for 6 min to separate plasma, which was stored at -80°C. […] • Liquid phase conditions: Shimadzu LC-20AD pump • Mass spectrometry conditions: AB Sciex API 4000 mass spectrometer • Chromatographic column: phenomenex Gemiu 5 um C18 50 × 4.6 mm • Mobile phase: Solution A was 0.1% formic acid aqueous solution, and Solution B was methanol • Flow rate: 1.0 mL/min • Elution time: 0-4.0 min, the eluent was as follows: […] The results of the rat pharmacokinetic experiment are shown in the table below: Table 5: Pharmacokinetic parameters of oral administration of the compound of the present invention in rats

[3] = Pharmacokinetic evaluation in mice, oral administration; assay type: in vivo, Balb/c mice; details: p.o. 5 mg/kg, plasma; for AUC(0-inf) / AUC(0-t) / Cmax / Tmax / MRT inf: mouse, in vivo, po; for MRT inf: read-out: MRT 0-∞
Protocol: Balb/c mice were used as test animals to study the pharmacokinetic behavior of the compound of the present invention in mice (plasma) at a dose of 5 mg/kg administered orally and 1 mg/kg administered intravenously.
Balb/c mice, 3 per group, male.
(§4) Preparation of drug for oral administration: 10%PEG400/10%PG/80% glycine buffer (100 mM glycine, 64 Mm NaOH, […]) buffer.
10 ml of PEG400, 10 ml of PG, and 80 ml of (100 mM glycine, 64 Mm NaOH, pH = 9) were measured into a 100 ml volumetric flask, vortexed, mixed homogeneously, and sonicated to obtain a clear solution.
Single PK: An example compound was weighed into a 4 mL glass bottle. The solution was added, and sonication was performed for 10 min to obtain a colorless clear solution having a concentration of 0.5 mg/mL.
The solution was added, and sonication was performed for 10 min to obtain a colorless clear solution having a concentration of 0.5 mg/mL.
Three Balb/c mice, male, respectively administered p.o. after fasting overnight, at a dose of 5 mg/kg and in an administration volume of 10 mL/kg.
The blood samples were placed in EDTA-K2 anticoagulant tubes and centrifuged at 6000 rpm at 4°C for 6 min to separate plasma, which was stored at -80°C. The mice were fed 4 h after administration.
(§5) • 1) 40 µL of a plasma sample was added with 160 µL of acetonitrile for precipitation, and after mixing, the mixture was centrifuged at 3500 × g for 5 to 20 min. • 2) The supernatant solution after treatment was taken for LC/MS/MS analysis of the concentration of the test compound. The LC/MS/MS analysis instrument was AB Sciex API 4000 Qtrap.
• Liquid phase condition: Shimadzu LC-20AD pump • Chromatographic column: Agilent ZORBAX XDB-C18 (50×2.1 mm, 3.5 µm) Mobile phase: Solution A was 0.1% formic acid aqueous solution, and Solution B was acetonitrile • Flow rate: 0.4 mL/min • Elution time: 0-4.0 min, the eluent was as follows:
Main pharmacokinetic parameters were calculated using WinNonlin 6.1.

human GLP-1 receptor [4] = target: T1, human GLP-1 receptor; test: cAMP production in cell line stably transformed with human GLP1 receptor, 2 h co-incubation (HTRF); assay type: cell-based; details: CHO-K1/GLP-1R/CRE-luc cells, stimulation for 2 h, read-out: EC50
Protocol: as §1
In this experiment, the compound and cells were co-incubated for 2 h.
as §2, with “for 2” for “for 0.5”
as §3

[5] = Pharmacokinetic evaluation in Macaca fascicularis monkeys, oral administration; assay type: in vivo; details: cynomolgus monkey, p.o. 5 mg/kg, plasma
Protocol: Macaca fascicularis monkeys were used as test animals to study the pharmacokinetic behavior of the compound of the present invention, administered orally at a dose of 5 mg/kg, in Macaca fascicularis monkeys (plasma).
Macaca fascicularis monkeys, 3 per group, male.
as §4
(§6) Single PK: The compound of the present invention was weighed into a 100 mL glass bottle, and the solution was added. The pH was first adjusted with 1 M NaOH until the compound dissolves to obtain a clear solution, and then the pH was readjusted to pH 9.0-9.5 with 1 M HCl. Sonication was performed for 10 min to obtain a colorless clear solution having a concentration of 1 mg/mL.
Three Macaca fascicularis monkeys, male, respectively administered p.o. after fasting overnight, at a dose of 5 mg/kg and in an administration volume of 5 mL/kg.
(§7) Blood collection: 0.3 mL of blood was collected from the forelimb vein of the Macaca fascicularis monkeys before administration and at 0.25, 0.5, 1, 2, 4, 6, 8, and 24 h after administration. The blood samples were placed in EDTA-K2 anticoagulant tubes and centrifuged at 6000 rpm at 4°C for 6 min to separate plasma, which was stored at -80°C. The Macaca fascicularis monkeys were fed 4 h after administration.
as §5
(§8) • Liquid phase condition: Shimadzu LC-20AD pump • Chromatographic column: Agilent ZORBAX XDB-C18 (50×2.1 mm, 3.5 µm) Mobile phase: Solution A was 0.1% formic acid aqueous solution, and Solution B was acetonitrile • Flow rate: 0.4 mL/min • Elution time: 0-4.0 min, the eluent was as follows: […]

[6] = Pharmacokinetic evaluation in beagles, oral administration; assay type: in vivo; details: dog, po, p.o. 2 mg/kg, plasma
Protocol: Beagles were used as test animals to study the pharmacokinetic behavior of the compound of the present invention, administered orally at a dose of 2 mg/kg, in beagles (plasma).
Beagles, 3 per group, male.
as §4
as §6, with “of 0.4” for “of 1”
Three beagles, male, respectively administered p.o. after fasting overnight, at a dose of 2 mg/kg and in an administration volume of 5 mL/kg.
as §7, with “beagles” for “Macaca fascicularis monkeys”
as §5, §8

[7] = not marked single PK (cassette PK)

T1 sequence (P43220 24-463): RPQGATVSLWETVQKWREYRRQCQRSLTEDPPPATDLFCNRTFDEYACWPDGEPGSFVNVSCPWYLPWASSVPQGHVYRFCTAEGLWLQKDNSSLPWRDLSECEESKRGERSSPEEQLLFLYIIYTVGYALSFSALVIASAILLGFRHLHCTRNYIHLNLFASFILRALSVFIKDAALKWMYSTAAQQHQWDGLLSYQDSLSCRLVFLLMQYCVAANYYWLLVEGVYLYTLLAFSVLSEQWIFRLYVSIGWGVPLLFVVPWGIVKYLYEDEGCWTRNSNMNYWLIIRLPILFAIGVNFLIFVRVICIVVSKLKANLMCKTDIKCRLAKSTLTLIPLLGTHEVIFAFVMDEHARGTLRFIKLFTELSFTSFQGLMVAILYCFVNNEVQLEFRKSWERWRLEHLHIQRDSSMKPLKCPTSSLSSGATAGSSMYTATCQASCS

SMILES | EC50 (human GLP-1 receptor [1]) | AUC(0-inf) [2] | AUC(0-t) [2] | Cmax [2] | Tmax [2] | half-life [2] | MRT inf [2] | AUC(0-inf) ([3]; single PK) | AUC(0-t) ([3]; single PK) | Cmax ([3]; single PK) | Tmax ([3]; single PK) | MRT inf ([3]; single PK) | tl/2 ([3]; single PK) | also measured
Cc1cc(-n2nc3c(c2-n2ccn(-c4ccc5c(c4)CCc4nnc(C)n4-5)c2=O)[C@H](C)N(C(=O)c2cc4cc([C@H]5CCOC(C)(C)C5)ccc4n2[C@@]2(c4noc(=O)[nH]4)C[C@@H]2C)CC3)cc(C)c1F [Example 8] | 0.51 nM |  |  |  |  |  |  |  |  |  |  |  |  | 
Cc1cc(-n2nc3c(c2-n2ccn(-c4ccc5c(c4)OCc4nnc(C)n4-5)c2=O)[C@H](C)N(C(=O)c2cc4cc([C@H]5CCOC(C)(C)C5)ccc4n2[C@@]2(c4noc(=O)[nH]4)C[C@@H]2C)CC3)cc(C)c1F [Example 19] | 0.88 nM |  |  |  |  |  |  |  |  |  |  |  |  | 
Cc1cc(-n2nc3c(c2-n2ccn(-c4ccc5c(c4F)C4(CC4)C(=O)N5C)c2=O)[C@H](C)N(C(=O)c2cc4cc([C@H]5CCOC(C)(C)C5)ccc4n2[C@@]2(c4noc(=O)[nH]4)C[C@@H]2C)CC3)cc(C)c1F [Example 15] | 0.32 nM |  |  |  |  |  |  |  |  |  |  |  |  | 
Cc1cc(-n2nc3c(c2-n2ccn(-c4ccc5c6c(nn5C)CCCOc46)c2=O)[C@H](C)N(C(=O)c2cc4cc([C@H]5CCOC(C)(C)C5)ccc4n2[C@@]2(c4noc(=O)[nH]4)C[C@@H]2C)CC3)cc(C)c1F [Example 35] |  | 14100 ng·h/mL | 12400 ng·h/mL | 1110 ng/mL | 4.7 h | 7.2 h | 11.5 h | 41000 ng·h/mL | 32900 ng·h/mL | 3070 ng/mL | 1.2 h | 13.9 h | 10.3 h | 
Cc1cc(-n2nc3c(c2-n2ccn(-c4ccc5c(cnn5C5CC5)c4F)c2=O)[C@H](C)N(C(=O)c2cc4cc([C@H]5CCOC(C)(C)C5)ccc4n2[C@@]2(c4noc(=O)[nH]4)C[C@@H]2C)CC3)cc(C)c1F [Example 25] |  | 37300 ng·h/mL | 28500 ng·h/mL | 1960 ng/mL | 6 h | 10.5 h | 16.4 h |  |  |  |  |  |  | AUC(0-inf) [3, 7]: 39000 ng·h/mL; AUC(0-t) [3, 7]: 30500 ng·h/mL; Cmax [3, 7]: 2060 ng/mL; Tmax [3, 7]: 2 h; MRT inf [3, 7]: 15.2 h; tl/2 [3, 7]: 10.7 h
Cc1cc(-n2nc3c(c2-n2ccn(-c4ccc5c(cnn5C5CC5)c4F)c2=O)[C@H](C)N(C(=O)c2cc4cc([C@H]5CCOC(C)(C)C5)ccc4n2[C@@]2(c4noc(=O)[nH]4)[C@@H]4COC[C@@H]42)CC3)cc(C)c1F [Example 65-1] |  |  |  |  |  |  |  | 10900 ng·h/mL | 10600 ng·h/mL | 1220 ng/mL | 2.7 h | 6.5 h | 4.8 h | EC50 (human GLP-1 receptor [4]): 0.06 nM; AUC(0-inf) [5]: 30800 ng·h/mL; AUC(0-t) [5]: 29700 ng·h/mL; Cmax [5]: 4460 ng/mL; Tmax [5]: 2 h; half-life [5]: 5.6 h; MRT inf ([5]; read-out: MRT 0-∞): 7.5 h; AUC(0-inf) [6]: 43900 ng·h/mL; AUC(0-t) at 24 h [6]: 41000 ng·h/mL; half-life [6]: 5.9 h; Cmax ([6]; read-out: Cmax): 4360 ng/mL; MRT inf ([6]; read-out: MRT 0-∞): 8.1 h; Tmax ([6]; read-out: tmax): 2.8 h
